# System: truies
# Assay: Synchronisation of parturition in sows: interval between injection of the active principle and farrowing
# Type: in vivo
# Settings: single i.m. injection on day 113 of gestation (Ho = 9 h); for intervalle de temps entre l'injection du principe actif et la mise bas: 20 à 30 H (number of animals) / intervalle de temps entre l'injection du principe actif et la mise bas: 30 à 36 H (number of animals) / intervalle de temps entre l'injection du principe actif et la mise bas: - 20 H (number of animals): produit A 2 mg/kg (n = 24); for intervalle de temps entre l'injection du principe actif et la mise bas: 20 à 30 H (number of animals) / intervalle de temps entre l'injection du principe actif et la mise bas: 20 à 30 H (% des animaux): farrowing 20 to 30 h after injection; for intervalle de temps entre l'injection du principe actif et la mise bas: 30 à 36 H (number of animals) / intervalle de temps entre l'injection du principe actif et la mise bas: 30 à 36 H (% des animaux): farrowing 30 to 36 h after injection; for intervalle de temps entre l'injection du principe actif et la mise bas: - 20 H (number of animals) / intervalle de temps entre l'injection du principe actif et la mise bas: - 20 H (% des animaux): farrowing less than 20 h after injection; for intervalle de temps entre l'injection du principe actif et la mise bas: 20 à 30 H (% des animaux) / intervalle de temps entre l'injection du principe actif et la mise bas: 30 à 36 H (% des animaux) / intervalle de temps entre l'injection du principe actif et la mise bas: - 20 H (% des animaux): produit A 2 mg/kg
# Source text: L'essai a été réalisé chez des truies. Les truies ont été sélectionnées en fonction des critères suivants : • truies de même origine (même schéma de sélection), • truies de même rang de parturition (3ème), • saillie par le même verrat ou insémination artificielle avec semence de même origine, • nombre de saillies ou d'inséminations identiques, • saillie ou insémination sur première chaleur post-sevrage (intervalle sevrage saillie identique ou très proche), • durée d'allaitement identique.
# Les truies sont divisées en 3 lots de n animaux : • un lot témoin ne reçoit aucun produit, • un lot reçoit une injection intra-musculaire de 2 mg/kg de produit A ou 17béta-hydroxy 11béta-(4-diméthylaminophényl) 17alpha-(prop-1-ynyl) estra-4,9-dièn-3-one, le 113ème jour de la gestation, • un lot reçoit une injection intra-musculaire de 175 mcg de cloprosténol sous forme de PLANATE^ R par truie, le 113 ème jour de la gestation.
# On a mesuré l'intervalle de temps entre l'injection du principe actif et la mise bas : le tableau suivant résume les résultats obtenus.
# 1.- Animaux traités (Ho = 9 heures le 113ème jour de gestation.
# [1] = cloprosténol 175 mcg per sow (n = 23)
Structure (SMILES),intervalle de temps entre l'injection du principe actif et la mise bas: 20 à 30 H (number of animals) [1],intervalle de temps entre l'injection du principe actif et la mise bas: 30 à 36 H (number of animals) [1],intervalle de temps entre l'injection du principe actif et la mise bas: - 20 H (number of animals) [1],intervalle de temps entre l'injection du principe actif et la mise bas: 20 à 30 H (% des animaux) (cloprosténol 175 mcg per sow) [%],intervalle de temps entre l'injection du principe actif et la mise bas: 30 à 36 H (% des animaux) (cloprosténol 175 mcg per sow),intervalle de temps entre l'injection du principe actif et la mise bas: - 20 H (% des animaux) (cloprosténol 175 mcg per sow),"intervalle de temps entre l'injection du principe actif et la mise bas: + 36 H (number of animals) (cloprosténol 175 mcg per sow (n = 23), farrowing more than 36 h after injection)","intervalle de temps entre l'injection du principe actif et la mise bas: + 36 H (% des animaux) (cloprosténol 175 mcg per sow, farrowing more than 36 h after injection) [%]"
"CC#C[C@]1(O)CC[C@H]2[C@@H]3CCC4=CC(=O)CCC4=C3[C@@H](c3ccc(N(C)C)cc3)C[C@@]21C [Produit A, 17béta-hydroxy 11béta-(4-diméthylaminophényl) 17alpha-(prop-1-ynyl) estra-4,9-dièn-3-one]",22,1,1,92,4%,4%,,
"O=C(O)CCC/C=C\CC1C(O)CC(O)C1/C=C/C(O)COc1cccc(Cl)c1 (centres unmarked) [Cloprosténol, cloprosténol]",18,1,1,78,"4,5%","4,5%",3,13
